Data as given in patent US12138272B2, “Methods and compositions for treating amyotrophic lateral sclerosis” (Amylyx Pharmaceuticals, Inc., priority 2022, dated 2024).
Converted amounts (≈) assume the structure as drawn. “Also recorded” adds a separate entry of the source. Marks after values point to notes of the source that are not given here.

Experiments:
BSEP [1] = target: T1, BSEP (Homo sapiens, UniProt O95342); test: in vitro
BSEP [2] = target: T1, BSEP; test: ATP-dependent uptake of test article by BSEP-transfected Sf9 membrane vesicles (substrate assessment); conditions: for substrate of BSEP (conclusion in words): criteria ≥2-fold ATP-dependent uptake and >50% inhibition by selective inhibitor; for remaining BSEP activity after cyclosporine A treatment: test article 1 and 10 μM + cyclosporine A 20 μM; for inhibition of test article uptake by cyclosporine A: cyclosporine A 20 μM
BSEP [3] = target: T1, BSEP; test: Inhibition of 3H-taurocholic acid uptake by BSEP membrane vesicles (inhibitor assessment); conditions: for inhibitor of BSEP (conclusion in words): criterion >25% concentration-dependent inhibition of probe substrate uptake; for ATP-Dependent Uptake Activity of 3H-taurocholic acid / Signal-to-Noise Ratio / Uptake Activity of 3H-taurocholic acid, Mg-AMP / Uptake Activity of 3H-taurocholic acid, Mg-ATP: 3H-taurocholic acid 1 μM
[4] = Solubility in stock solvent and assay buffers
[5] = test article 1 μM + cyclosporine 20 μM
[6] = test article 10 μM + cyclosporine 20 μM
[7] = test article 10 μM, listed as UA
[8] = assay buffers, aqueous buffer, kinetic from dmso stock
[9] = methanol, organic solvent or mixture

T1 sequence (O95342 whole entry): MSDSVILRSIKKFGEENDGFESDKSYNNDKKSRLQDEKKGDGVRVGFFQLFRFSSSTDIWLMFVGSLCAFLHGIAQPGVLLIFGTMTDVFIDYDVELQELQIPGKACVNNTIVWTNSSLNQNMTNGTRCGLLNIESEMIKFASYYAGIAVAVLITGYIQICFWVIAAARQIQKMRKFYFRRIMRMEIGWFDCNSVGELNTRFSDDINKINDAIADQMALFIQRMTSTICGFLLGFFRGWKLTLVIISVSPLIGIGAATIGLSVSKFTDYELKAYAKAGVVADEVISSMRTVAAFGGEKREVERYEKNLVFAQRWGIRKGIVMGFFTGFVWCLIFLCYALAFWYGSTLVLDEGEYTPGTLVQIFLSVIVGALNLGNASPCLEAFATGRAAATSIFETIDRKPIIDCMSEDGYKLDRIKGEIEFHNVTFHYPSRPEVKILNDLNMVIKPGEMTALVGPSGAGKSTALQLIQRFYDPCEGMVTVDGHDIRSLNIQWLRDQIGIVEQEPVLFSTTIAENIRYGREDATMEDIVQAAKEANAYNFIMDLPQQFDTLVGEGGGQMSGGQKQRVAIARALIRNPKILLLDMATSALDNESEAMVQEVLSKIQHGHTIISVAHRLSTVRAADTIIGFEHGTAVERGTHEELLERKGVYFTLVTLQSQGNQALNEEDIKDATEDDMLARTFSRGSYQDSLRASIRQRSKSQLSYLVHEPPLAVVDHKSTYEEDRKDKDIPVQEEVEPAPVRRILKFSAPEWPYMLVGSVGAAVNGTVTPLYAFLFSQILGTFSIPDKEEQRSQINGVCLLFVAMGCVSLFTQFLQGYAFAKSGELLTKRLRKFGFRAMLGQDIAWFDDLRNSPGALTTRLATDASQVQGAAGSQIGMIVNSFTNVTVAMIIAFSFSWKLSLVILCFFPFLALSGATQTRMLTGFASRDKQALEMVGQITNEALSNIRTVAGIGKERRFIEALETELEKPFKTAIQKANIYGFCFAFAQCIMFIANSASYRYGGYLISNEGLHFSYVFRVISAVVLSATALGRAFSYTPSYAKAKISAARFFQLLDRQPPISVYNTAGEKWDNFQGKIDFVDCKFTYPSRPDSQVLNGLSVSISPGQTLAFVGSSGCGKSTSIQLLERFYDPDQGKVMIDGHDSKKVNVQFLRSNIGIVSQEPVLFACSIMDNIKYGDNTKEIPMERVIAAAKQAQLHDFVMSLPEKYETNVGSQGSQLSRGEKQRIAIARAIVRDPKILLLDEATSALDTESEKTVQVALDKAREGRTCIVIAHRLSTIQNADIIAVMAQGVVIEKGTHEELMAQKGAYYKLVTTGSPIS

solubility [4, 8] [mM]	solubility [4, 9] [mM]	SMILES	activity at 30 min, 50 μM (BSEP [1]) [%]	potency estimated from few doses at 30 min (BSEP [1]) [µM]	ATP-Dependent Uptake Activity of test article (BSEP [2]; test article 1 μM)	Uptake Activity of test article, Mg-AMP (BSEP [2]; test article 1 μM)	Uptake Activity of test article, Mg-ATP (BSEP [2]; test article 1 μM)	Uptake Activity of test article, Mg-AMP (BSEP [2]; [5])	Uptake Activity of test article, Mg-ATP (BSEP [2]; [5])	ATP-Dependent Uptake Activity of test article (BSEP [2]; test article 10 μM) [pmol/minute/mg protein]	Signal-to-Noise Ratio (BSEP [2]; test article 10 μM)	Uptake Activity of test article, Mg-AMP (BSEP [2]; test article 10 μM)	Uptake Activity of test article, Mg-ATP (BSEP [2]; test article 10 μM)	Uptake Activity of test article, Mg-AMP (BSEP [2]; [6])	Uptake Activity of test article, Mg-ATP (BSEP [2]; [6])	ATP-dependent BSEP uptake activity relative to AMP uptake (BSEP [2]; test article 1 and 10 μM) [fold]	substrate of BSEP (conclusion in words) (BSEP [2]; test article 1 and 10 μM)	inhibitor of BSEP (conclusion in words) (BSEP [3])	ATP-Dependent Uptake Activity of 3H-taurocholic acid (BSEP [3]; inhibitor 50 μM) [pmol/minute/mg protein]	Signal-to-Noise Ratio (BSEP [3]; inhibitor 50 μM)	further results
0.5 (≈ 196 µg/mL)	100 (≈ 39300 µg/mL)	C[C@H](CCC(=O)O)[C@H]1CC[C@H]2[C@@H]3[C@@H](O)C[C@@H]4C[C@H](O)CC[C@]4(C)[C@H]3CC[C@]12C [Ursodeoxycholic acid]	64	< 500	could not be detected	BLQ	BLQ	BLQ	BLQ	0.792	1.26	3.08^b pmol/minute/mg protein	3.87^b pmol/minute/mg protein	BLQ	5.61^b pmol/minute/mg protein	< 2	not a substrate	inhibited uptake of the probe substrate	6.04	9.66	IC50 at 30 min (BSEP [1]): < 500 µM; activity at 30 min, 500 μM (BSEP [1]): 4.5%; ATP-Dependent Uptake Activity of test article (BSEP [2]; [7]): 0.792^b pmol/minute/mg protein; Signal-to-Noise Ratio (BSEP [2]; [7]): 1.26^b; substrate of BSEP (conclusion in words) (BSEP [2]; test article 1 and 10 μM, listed as ursodeoxycholic acid): not a substrate of BSEP; inhibitor of BSEP (conclusion in words) (BSEP [3]; listed as ursodeoxycholic acid): inhibitors of BSEP; Uptake Activity of 3H-taurocholic acid, Mg-AMP (BSEP [3]; inhibitor 50 μM): 0.697 pmol/minute/mg protein; Uptake Activity of 3H-taurocholic acid, Mg-ATP (BSEP [3]; inhibitor 50 μM): 6.73 pmol/minute/mg protein; ATP-Dependent Uptake Activity of 3H-taurocholic acid (BSEP [3]; inhibitor 500 μM): 0.425 pmol/minute/mg protein; Signal-to-Noise Ratio (BSEP [3]; inhibitor 500 μM): 1.95; Uptake Activity of 3H-taurocholic acid, Mg-AMP (BSEP [3]; inhibitor 500 μM): 0.449 pmol/minute/mg protein; Uptake Activity of 3H-taurocholic acid, Mg-ATP (BSEP [3]; inhibitor 500 μM): 0.873 pmol/minute/mg protein
0.05 (≈ 25 µg/mL)	10 (≈ 5000 µg/mL)	C[C@H](CCC(=O)NCCS(=O)(=O)O)[C@H]1CC[C@H]2[C@@H]3[C@@H](O)C[C@@H]4C[C@H](O)CC[C@]4(C)[C@H]3CC[C@]12C [Tauroursodeoxycholic acid]	5.14	< 5	14.4 pmol/minute/mg protein	4.90^c pmol/minute/mg protein	19.3^b pmol/minute/mg protein	BLQ	BLQ	22.4	10.6	2.33 pmol/minute/mg protein	24.7 pmol/minute/mg protein	3.98 pmol/minute/mg protein	6.79 pmol/minute/mg protein	> 2	a substrate of BSEP transporters	strongly inhibited; also recorded: inhibited	0.747	2.34	activity at 30 min, 5 μM (BSEP [1]): 46.2%; Signal-to-Noise Ratio (BSEP [2]; test article 1 μM): 3.94; ATP-Dependent Uptake Activity of test article (BSEP [2]; [6]): 2.81 pmol/minute/mg protein; Signal-to-Noise Ratio (BSEP [2]; [6]): 1.71; remaining BSEP activity after cyclosporine A treatment (BSEP [2]): ≤ 12.6%; substrate of BSEP (conclusion in words) (BSEP [2]; test article 1 and 10 μM, listed as tauroursodeoxycholic acid): a substrate of BSEP; inhibition of test article uptake by cyclosporine A (BSEP [2]; test article 1 and 10 μM): inhibited by cyclosporine A; inhibitor of BSEP (conclusion in words) (BSEP [3]; listed as TURSO): inhibitors of BSEP; ATP-Dependent Uptake Activity of 3H-taurocholic acid (BSEP [3]; inhibitor 5 μM): 6.71 pmol/minute/mg protein; Signal-to-Noise Ratio (BSEP [3]; inhibitor 5 μM): 10.1^b; Uptake Activity of 3H-taurocholic acid, Mg-AMP (BSEP [3]; inhibitor 5 μM): 0.737 pmol/minute/mg protein; Uptake Activity of 3H-taurocholic acid, Mg-ATP (BSEP [3]; inhibitor 5 μM): 7.45^b pmol/minute/mg protein; Uptake Activity of 3H-taurocholic acid, Mg-AMP (BSEP [3]; inhibitor 50 μM): 0.556 pmol/minute/mg protein; Uptake Activity of 3H-taurocholic acid, Mg-ATP (BSEP [3]; inhibitor 50 μM): 1.30 pmol/minute/mg protein
0.25	50	O=C(O)CCCc1ccccc1 [Sodium phenylbutyrate]	–	–	–	BLQ	BLQ	–	–	–	–	–	–	BLQ	BLQ	–	not a substrate of BSEP	did not meet the criteria for identification as an inhibitor; also recorded: did not inhibit	–	–	activity at 30 min, 25 μM (BSEP [1]): 77.2%; activity at 30 min, 250 μM (BSEP [1]): 82.4%; uptake of test article by BSEP vesicles (BSEP [2]; test article 1 and 10 μM): not detected; substrate of BSEP (conclusion in words) (BSEP [2]; test article 1 and 10 μM, listed as sodium phenylbutyrate): not identified as a substrate; ATP-Dependent Uptake Activity of 3H-taurocholic acid (BSEP [3]; inhibitor 25 μM): 19.3 pmol/minute/mg protein; Signal-to-Noise Ratio (BSEP [3]; inhibitor 25 μM): 35.9; Uptake Activity of 3H-taurocholic acid, Mg-AMP (BSEP [3]; inhibitor 25 μM): 0.554 pmol/minute/mg protein; Uptake Activity of 3H-taurocholic acid, Mg-ATP (BSEP [3]; inhibitor 25 μM): 19.9 pmol/minute/mg protein; ATP-Dependent Uptake Activity of 3H-taurocholic acid (BSEP [3]; inhibitor 250 μM): 20.6 pmol/minute/mg protein; Signal-to-Noise Ratio (BSEP [3]; inhibitor 250 μM): 31.6; Uptake Activity of 3H-taurocholic acid, Mg-AMP (BSEP [3]; inhibitor 250 μM): 0.673 pmol/minute/mg protein; Uptake Activity of 3H-taurocholic acid, Mg-ATP (BSEP [3]; inhibitor 250 μM): 21.3 pmol/minute/mg protein

SMILES	solubility [4, 8] [mM]	solubility [4, 9] [mM]	activity at 30 min, 50 μM (BSEP [1]) [%]	potency estimated from few doses at 30 min (BSEP [1]) [µM]	ATP-Dependent Uptake Activity of test article (BSEP [2]; test article 1 μM)	Uptake Activity of test article, Mg-AMP (BSEP [2]; test article 1 μM)	Uptake Activity of test article, Mg-ATP (BSEP [2]; test article 1 μM)	Uptake Activity of test article, Mg-AMP (BSEP [2]; [5])	Uptake Activity of test article, Mg-ATP (BSEP [2]; [5])	ATP-Dependent Uptake Activity of test article (BSEP [2]; test article 10 μM) [pmol/minute/mg protein]	Signal-to-Noise Ratio (BSEP [2]; test article 10 μM)	Uptake Activity of test article, Mg-AMP (BSEP [2]; test article 10 μM)	Uptake Activity of test article, Mg-ATP (BSEP [2]; test article 10 μM)	Uptake Activity of test article, Mg-AMP (BSEP [2]; [6])	Uptake Activity of test article, Mg-ATP (BSEP [2]; [6])	ATP-dependent BSEP uptake activity relative to AMP uptake (BSEP [2]; test article 1 and 10 μM) [fold]	substrate of BSEP (conclusion in words) (BSEP [2]; test article 1 and 10 μM)	inhibitor of BSEP (conclusion in words) (BSEP [3])	ATP-Dependent Uptake Activity of 3H-taurocholic acid (BSEP [3]; inhibitor 50 μM) [pmol/minute/mg protein]	Signal-to-Noise Ratio (BSEP [3]; inhibitor 50 μM)	further results
C[C@H](CCC(=O)NCC(=O)O)[C@H]1CC[C@H]2[C@@H]3[C@@H](O)C[C@@H]4C[C@H](O)CC[C@]4(C)[C@H]3CC[C@]12C [Glycoursodeoxycholic acid]	0.1 (≈ 45 µg/mL)	50 (≈ 22500 µg/mL)	–	< 10	11.2 pmol/minute/mg protein	BLQ	11.2 pmol/minute/mg protein	BLQ	BLQ	14.2	–	BLQ	14.2 pmol/minute/mg protein	6.93 pmol/minute/mg protein	BLQ	> 2	a substrate of BSEP transporters	strongly inhibited; also recorded: inhibited	–	–	activity at 30 min, 10 μM (BSEP [1]): 48.3%; activity at 30 min, 100 μM (BSEP [1]): 10.4%; ATP-Dependent Uptake Activity of test article (BSEP [2]; [6]): 0.00^b pmol/minute/mg protein; remaining BSEP activity after cyclosporine A treatment (BSEP [2]): No remaining BSEP activity; substrate of BSEP (conclusion in words) (BSEP [2]; test article 1 and 10 μM, listed as glycoursodeoxycholic acid): a substrate of BSEP; inhibition of test article uptake by cyclosporine A (BSEP [2]; test article 1 and 10 μM): inhibited by cyclosporine A; inhibitor of BSEP (conclusion in words) (BSEP [3]; listed as glycoursodeoxycholic acid): inhibitors of BSEP; ATP-Dependent Uptake Activity of 3H-taurocholic acid (BSEP [3]; inhibitor 10 μM): 8.56 pmol/minute/mg protein; Signal-to-Noise Ratio (BSEP [3]; inhibitor 10 μM): 11.9; Uptake Activity of 3H-taurocholic acid, Mg-AMP (BSEP [3]; inhibitor 10 μM): 0.788 pmol/minute/mg protein; Uptake Activity of 3H-taurocholic acid, Mg-ATP (BSEP [3]; inhibitor 10 μM): 9.35 pmol/minute/mg protein; ATP-Dependent Uptake Activity of 3H-taurocholic acid (BSEP [3]; inhibitor 100 μM): 1.84 pmol/minute/mg protein; Signal-to-Noise Ratio (BSEP [3]; inhibitor 100 μM): 2.89; Uptake Activity of 3H-taurocholic acid, Mg-AMP (BSEP [3]; inhibitor 100 μM): 0.974 pmol/minute/mg protein; Uptake Activity of 3H-taurocholic acid, Mg-ATP (BSEP [3]; inhibitor 100 μM): 2.81 pmol/minute/mg protein
